Results taken from patent publication US20180291285A1 (Clariant International, Ltd., priority 2015, published 2018).

Assay: Bioaccumulation log Pow (slow stirring method)
Excerpt: As mentioned before. The environmental acceptability of these esterquat surfactant compounds is of essential importance for emulsion breaking operations in oil production processes.

Substance: Dioleic acid triethanolamine esterquat [Di-oleic acid triethanolamine esterquat]
- bioaccumulation: log Pow: 0.73
